In patent publication US20250041302A1, “PROLYL HYDROXYLASE DOMAIN INHIBITOR FOR TREATING HEMORRHAGIC OR BURN SHOCK” (THE GOVERNMENT OF THE UNITED STATES, AS REPRESENTED BY THE …, priority 2022, published 2025):
Entries after “also recorded” stand apart in the source; their conditions may differ.

Assays:
[1] = system: rats with polytrauma and hemorrhage; assay: TXA in polytrauma/hemorrhage (FIG. 11); type: in vivo
Method: FIG. 11. The effect of anti-fibrinolytic agent (tranexamic acid; TXA) on polytrauma/hemorrhage. Single dose of TXA (10 mg/kg) given prior to trauma. (FIG. 11A) Prothrombin time. Values represent as means±SEM. *:p<0.05, significant difference between TXA and Vehicle; #:p<0.05, significant difference as compared with baseline. (FIG. 11B) Lung wet/dry weight ratio. TXA was given just before trauma (BT, red), just after trauma (AT, green) and 45 min after the end of trauma (yellow). Values represent as means±SEM. *:p<0.05, significant difference as compared with vehicle. (FIG. 11C) Acute lung injury. TXA given 45 min after trauma (and 15 min prior to resuscitation). Levels of platelet and leukocytes (neutrophils and monocytes) infiltration, and C5a and neutrophil elastase in the lung as compared with FWB. *:p<0.05, significant difference between FWB and FWB/TXA; #:p<0.05, significant difference as compared with Non-R; $:p<0.05, significant difference as compared with Non-R, FWB and FWB/TXA. Values represent as means±SEM. Non-R: Non-Resuscitation; FWB: Fresh Whole Blood; TXA: Tranexamic Acid; AT: After Trauma; BT: Before Trauma.
Briefly, Sprague-Dawley rats (350-450 gram) were anesthetized with isoflurane/100% oxygen through a nosecone and allowed to breathe spontaneously. Cannulas were placed in the left femoral artery and vein for measurement of arterial blood pressure and to obtain vascular access (blood draw and resuscitation and drug administration) respectively. Polytrauma was induced by laparotomy, crush injury to the small intestines, the […], and the right leg skeletal muscle and by fracture of the right femur. In detail, a midline incision was made through the abdominal skin and underlying muscle layers. A 10-cm section of small intestines was isolated just anterior to the cecum and run gently through a clamp covered with silastic tubing with a 2-mm distance between the clamps to cause a gentle crush injury. The right and medial lobes of the liver will receive three crushes to each lobe using the same clamp. The intestines and liver were replaced, and the abdominal incision was closed with sutures in two layers. To fracture the […], a modification of a 3-point impact device was used by dropping six stainless-steel balls (65 g each) stacked together, from 36 inches through a guide tube (1 inch internal diameter) to impact on a rounded aluminum blade resting on the mid-right femur with the right leg resting on two aluminum stands, one under the hip and one under the knee. A large hemostat (5 in tongs) was used to clamp the muscle of the right leg 10 times. The crush injury was intended to cause microvascular damage, as opposed to cutting, chopping, or mincing of the tissue, which would have led to uncontrolled hemorrhage. The polytrauma was performed about 10 min followed immediately by hemorrhage. Blood volume was estimated as 6% of body weight±0.77. The rats were bled to lower mean arterial pressure to 40 mmHg within 5 min and maintained at 40 mmHg until 40% of estimated blood volume is removed. Hemorrhage is usually completed within 30 min. Hemorrhage was then discontinued, and blood pressure and heart rate will be allowed to freely compensate.
TXA was given just before trauma (BT, red), just after trauma (AT, green) and 45 min after the end of trauma (yellow). […] TXA was given 45 min after trauma (15 min prior to resuscitation).

[2] = system: rats (polytrauma with 40% hemorrhage); assay: HOE140 on tissue wet/dry weight ratio after polytrauma with 40% hemorrhage and lactated Ringer's resuscitation (FIG. 12); type: in vivo; conditions: for wet/dry weight ratio, brain: HOE140 0.4 mg/kg i.v. bolus 45 min after trauma, tissues 1 hour after resuscitation, vehicle 4.735±0.024
Method: FIG. 12. The effect of bradykinin receptor antagonist (HOE140) on tissue water content/vascular permeability in the brain, lung and skeletal muscle after polytrauma/hemorrhage and resuscitation of lactate Ringer's fluid (20% of Blood Volume). HOE140 or vehicle were given intravenously in rats (n=4/group) at 45 min after trauma (15 min prior to resuscitation of lactate Ringer's fluid). The tissues were harvested 2 hours after trauma. Values represent as means±SD. *:p<0.05 as compared with vehicle.
HOE140 (0.4 mg/kg) was administrated as a bolus intravenously at 45 min after trauma (15 min prior to Lactated Ringer's fluid resuscitation). At 1 hour after resuscitation, the rats were euthanized and the tissues were harvested for wet weight, and then transferred into the oven at 60° C. for 14 days to be weighed as dry weight. The wet/dry ratio represented the water content of the tissue.
Icatibant (HOE140), which is a selective competitive antagonist at the bradykinin type 2 (B2) receptor, is a synthetic decapeptide with a structure similar to bradykinin, but with 5 nonproteinogenic amino acids. It consists of ten amino acids in the following sequence: H-D-Arg-Arg-Pro-Hyp-Gly-Thi-Ser-D-Tic-Oic-Arg-OH. HOE140 (0.4 mg/kg in lactate Ringer's fluid) was administrated as a bolus intravenously at 45 min after trauma (15 min prior to lactated Ringer's fluid resuscitation (20% of Blood Volume)). At 1 hour after resuscitation, the rats were euthanized and the tissues were harvested for wet weight, and then transferred into the oven at 60° C. for 14 days to be weighed as dry weight. The wet/dry ratio represented the water content of the tissue.

[3] = TXA 15 min prior to FWB resuscitation at 60 min after trauma
[4] = single dose TXA 10 mg/kg prior to trauma

Compound | fluid movement into the lung (ALI, lung wet/dry weight ratio) ([1]; TXA 10 mg/kg just after trauma and 45 min after the end of trauma) | level of C5a in the lung as compared with FWB [1, 3] | level of neutrophil elastase in the lung as compared with FWB [1, 3] | platelet and leukocyte infiltration in the lung as compared with FWB [1, 3] | circulatory plasmin activity ([1]; current study) | prothrombin time (PT) at 30 min after trauma [1, 4] | prothrombin time (PT) at 120 min after trauma [1, 4] | tissue wet/dry weight ratio / tissue water content and vascular permeability ([2]; HOE140 0.4 mg/kg i.v.) | wet/dry weight ratio, brain ([2]; n=4) | wet/dry weight ratio, brain ([2]; n=4, 0.4 mg/kg) | tissue wet/dry weight ratio / tissue water content and vascular permeability ([2]; HOE140 0.4 mg/kg i.v., 0.4 mg/kg) | wet/dry weight ratio, traumatized skeletal muscle ([2]; HOE140 0.4 mg/kg i.v., n=4, vehicle 4.491±0.112) | wet/dry weight ratio, intestine ([2]; HOE140 0.4 mg/kg i.v., n=4, vehicle 4.528±0.112)
NC[C@H]1CC[C@H](C(=O)O)CC1 [TXA, tranexamic acid] | reduces fluid movement into the lung | significantly reduced | significantly reduced | significantly reduced | not significantly changed | delayed elevation of prothrombin time | significantly elevated | – | – | – | – | – | –
NC(N)=NCCC[C@@H](N)C(=O)N[C@@H](CCCN=C(N)N)C(=O)N1CCC[C@H]1C(=O)N1C[C@H](O)C[C@H]1C(=O)NCC(=O)N[C@@H](Cc1cccs1)C(=O)N[C@@H](CO)C(=O)N1Cc2ccccc2C[C@@H]1C(=O)N1[C@H](C(=O)N[C@@H](CCCN=C(N)N)C(=O)O)C[C@@H]2CCCC[C@@H]21 [Icatibant, H-D-Arg-Arg-Pro-Hyp-Gly-Thi-Ser-D-Tic-Oic-Arg-OH] | – | – | – | – | – | – | – | attenuated tissue wet/dry weight ratio | 4.674±0.023 | significantly declined | attenuated tissue wet/dry weight ratio; also recorded: reduced | 4.247±0.176 | 4.399±0.090
